Measured values taken from the kinase profiling compilation of Christmann-Franck et al. (2016).
“And” between values parts separate entries of the source, which are not always exact repeats. Equal entries are not always repeated.

Key:
Test in all cases: Caliper, Mobility shift assay off-chip
[1] = tested on: FLT3 (human), P36888 [D835Y]; details: compound 0.1 µM
MAPKAPK5 (human) = MAPKAPK5 (human) (UniProt Q8IW41)
EGFR (human) = EGFR (human) (UniProt P00533); details: compound 0.1 µM
MARK2 (human) = MARK2 (human) (UniProt Q7KZI7)
CSNK1A1 (human) = CSNK1A1 (human) (UniProt P48729)
BRSK2 (human) = BRSK2 (human) (UniProt Q8IWQ3)
FGFR3 (human) = FGFR3 (human) (UniProt P22607); details: compound 0.1 µM
MAPKAPK2 (human) = MAPKAPK2 (human) (UniProt P49137)
AKT1 (human) = AKT1 (human) (UniProt P31749)
IGF1R (human) = IGF1R (human) (UniProt P08069)
PRKD3 (human) = PRKD3 (human) (UniProt O94806)
CAMK2D (human) = CAMK2D (human) (UniProt Q13557)
Sequence of CAMK2D (human) (Q13557 whole entry, looked up): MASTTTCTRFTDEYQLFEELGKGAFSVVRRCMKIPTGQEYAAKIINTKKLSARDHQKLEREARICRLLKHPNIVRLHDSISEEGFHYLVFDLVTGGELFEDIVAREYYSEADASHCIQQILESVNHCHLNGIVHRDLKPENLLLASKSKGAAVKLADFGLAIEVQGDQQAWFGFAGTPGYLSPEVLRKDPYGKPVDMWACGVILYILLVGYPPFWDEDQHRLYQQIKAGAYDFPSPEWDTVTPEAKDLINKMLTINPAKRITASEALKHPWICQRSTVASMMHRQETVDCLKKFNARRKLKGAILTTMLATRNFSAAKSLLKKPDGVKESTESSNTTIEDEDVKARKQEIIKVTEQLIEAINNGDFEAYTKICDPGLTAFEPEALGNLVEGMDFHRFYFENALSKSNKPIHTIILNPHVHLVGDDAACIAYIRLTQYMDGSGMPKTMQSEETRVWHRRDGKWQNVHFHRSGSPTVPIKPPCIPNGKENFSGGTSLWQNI

PRKCE (human) = PRKCE (human) (UniProt Q02156)
MAPK3 (human) = MAPK3 (human) (UniProt P27361)
Sequence of MAPK3 (human) (P27361 whole entry, looked up): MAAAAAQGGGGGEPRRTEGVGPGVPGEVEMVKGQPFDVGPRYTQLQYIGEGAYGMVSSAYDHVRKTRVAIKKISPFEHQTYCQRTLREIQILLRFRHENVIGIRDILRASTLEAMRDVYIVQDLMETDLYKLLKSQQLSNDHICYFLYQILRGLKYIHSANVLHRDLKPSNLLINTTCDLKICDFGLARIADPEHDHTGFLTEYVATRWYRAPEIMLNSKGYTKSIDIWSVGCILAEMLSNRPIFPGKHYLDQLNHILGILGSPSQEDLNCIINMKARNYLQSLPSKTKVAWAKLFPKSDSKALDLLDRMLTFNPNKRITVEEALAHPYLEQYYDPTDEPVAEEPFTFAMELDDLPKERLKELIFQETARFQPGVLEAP

MAPK14 (human) = MAPK14 (human) (UniProt Q16539)
Sequence of MAPK14 (human) (Q16539 whole entry, looked up): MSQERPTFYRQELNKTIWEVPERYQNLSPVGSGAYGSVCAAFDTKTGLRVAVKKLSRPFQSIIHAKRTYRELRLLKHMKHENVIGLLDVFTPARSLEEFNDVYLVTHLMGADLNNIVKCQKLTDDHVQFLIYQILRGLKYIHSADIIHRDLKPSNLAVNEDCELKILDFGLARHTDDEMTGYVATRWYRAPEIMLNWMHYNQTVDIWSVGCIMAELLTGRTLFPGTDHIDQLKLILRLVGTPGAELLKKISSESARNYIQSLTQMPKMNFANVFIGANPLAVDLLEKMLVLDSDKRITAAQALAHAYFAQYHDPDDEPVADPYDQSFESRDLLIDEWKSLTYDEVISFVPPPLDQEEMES

LYN (human) = LYN (human) (UniProt P07948)
IKBKB (human) = IKBKB (human) (UniProt O14920); details: compound 0.1 µM
MAPK11 (human) = MAPK11 (human) (UniProt Q15759); details: compound 0.1 µM
SYK (human) = SYK (human) (UniProt P43405)
TSSK2 (human) = TSSK2 (human) (UniProt Q96PF2); details: compound 0.1 µM
DCLK2 (human) = DCLK2 (human) (UniProt Q8N568)
Sequence of DCLK2 (human) (Q8N568 whole entry, looked up): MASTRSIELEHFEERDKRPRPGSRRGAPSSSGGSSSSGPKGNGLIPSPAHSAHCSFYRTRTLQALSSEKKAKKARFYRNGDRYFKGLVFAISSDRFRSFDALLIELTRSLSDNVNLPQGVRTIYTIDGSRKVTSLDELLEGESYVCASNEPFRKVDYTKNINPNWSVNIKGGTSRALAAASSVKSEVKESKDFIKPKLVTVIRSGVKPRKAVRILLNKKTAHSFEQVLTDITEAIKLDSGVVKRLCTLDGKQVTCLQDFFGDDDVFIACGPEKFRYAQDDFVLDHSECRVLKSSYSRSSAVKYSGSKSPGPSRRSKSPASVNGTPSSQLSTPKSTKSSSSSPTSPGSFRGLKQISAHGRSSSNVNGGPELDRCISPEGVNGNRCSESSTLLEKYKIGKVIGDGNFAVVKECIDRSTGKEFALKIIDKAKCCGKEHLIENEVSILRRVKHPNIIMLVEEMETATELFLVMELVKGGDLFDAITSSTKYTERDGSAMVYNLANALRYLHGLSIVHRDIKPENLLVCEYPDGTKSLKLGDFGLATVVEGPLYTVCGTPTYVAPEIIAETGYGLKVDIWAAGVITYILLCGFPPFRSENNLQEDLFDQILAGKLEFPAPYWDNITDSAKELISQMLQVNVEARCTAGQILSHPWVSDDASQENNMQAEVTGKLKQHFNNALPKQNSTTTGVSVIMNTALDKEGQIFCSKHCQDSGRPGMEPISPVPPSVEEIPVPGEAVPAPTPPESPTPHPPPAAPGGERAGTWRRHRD

PRKD2 (human) = PRKD2 (human) (UniProt Q9BZL6)
[2] = tested on: ABL1 (human), P00519 [H396P]; details: compound 0.1 µM
BRSK1 (human) = BRSK1 (human) (UniProt Q8TDC3)
GSK3B (human) = GSK3B (human) (UniProt P49841); details: compound 1.0 µM
AKT3 (human) = AKT3 (human) (UniProt Q9Y243); details: compound 0.1 µM
MARK3 (human) = MARK3 (human) (UniProt P27448)
MAPKAPK3 (human) = MAPKAPK3 (human) (UniProt Q16644); details: compound 0.1 µM
CAMK2G (human) = CAMK2G (human) (UniProt Q13555); details: compound 0.1 µM
CSNK1D (human) = CSNK1D (human) (UniProt P48730)
Sequence of CSNK1D (human) (P48730 whole entry, looked up): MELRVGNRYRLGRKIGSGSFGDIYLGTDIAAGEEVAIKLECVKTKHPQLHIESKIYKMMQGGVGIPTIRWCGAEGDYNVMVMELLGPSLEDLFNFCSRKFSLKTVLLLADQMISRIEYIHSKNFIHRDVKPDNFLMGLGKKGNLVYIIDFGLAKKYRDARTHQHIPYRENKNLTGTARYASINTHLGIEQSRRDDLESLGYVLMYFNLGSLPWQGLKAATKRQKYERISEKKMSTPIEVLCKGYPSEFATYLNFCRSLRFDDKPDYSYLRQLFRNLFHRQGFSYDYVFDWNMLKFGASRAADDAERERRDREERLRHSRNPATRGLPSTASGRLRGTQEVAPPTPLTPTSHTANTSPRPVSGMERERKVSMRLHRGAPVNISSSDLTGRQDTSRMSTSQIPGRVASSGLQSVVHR

PRKG1 (human) = PRKG1 (human) (UniProt Q13976)
Sequence of PRKG1 (human) (Q13976 whole entry, looked up): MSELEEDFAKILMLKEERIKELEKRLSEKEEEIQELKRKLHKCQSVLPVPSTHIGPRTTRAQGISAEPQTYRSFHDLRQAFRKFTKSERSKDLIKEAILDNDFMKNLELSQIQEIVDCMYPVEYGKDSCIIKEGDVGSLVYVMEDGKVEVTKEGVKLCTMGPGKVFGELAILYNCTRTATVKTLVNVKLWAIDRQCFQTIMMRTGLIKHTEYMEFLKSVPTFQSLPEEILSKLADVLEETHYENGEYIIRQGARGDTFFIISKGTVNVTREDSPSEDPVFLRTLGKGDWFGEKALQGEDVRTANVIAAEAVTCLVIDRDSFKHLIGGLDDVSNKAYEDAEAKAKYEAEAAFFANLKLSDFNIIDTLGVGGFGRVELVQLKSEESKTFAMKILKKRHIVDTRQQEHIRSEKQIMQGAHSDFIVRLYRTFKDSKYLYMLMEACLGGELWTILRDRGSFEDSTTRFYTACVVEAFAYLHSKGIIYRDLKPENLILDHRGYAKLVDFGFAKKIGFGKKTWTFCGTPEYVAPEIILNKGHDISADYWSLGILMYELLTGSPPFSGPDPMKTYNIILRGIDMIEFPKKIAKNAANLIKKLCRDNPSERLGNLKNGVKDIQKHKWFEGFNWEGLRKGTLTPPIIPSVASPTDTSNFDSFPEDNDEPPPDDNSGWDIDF

FLT3 (human) = FLT3 (human) (UniProt P36888)
BMX (human) = BMX (human) (UniProt P51813)
Sequence of BMX (human) (P51813 whole entry, looked up): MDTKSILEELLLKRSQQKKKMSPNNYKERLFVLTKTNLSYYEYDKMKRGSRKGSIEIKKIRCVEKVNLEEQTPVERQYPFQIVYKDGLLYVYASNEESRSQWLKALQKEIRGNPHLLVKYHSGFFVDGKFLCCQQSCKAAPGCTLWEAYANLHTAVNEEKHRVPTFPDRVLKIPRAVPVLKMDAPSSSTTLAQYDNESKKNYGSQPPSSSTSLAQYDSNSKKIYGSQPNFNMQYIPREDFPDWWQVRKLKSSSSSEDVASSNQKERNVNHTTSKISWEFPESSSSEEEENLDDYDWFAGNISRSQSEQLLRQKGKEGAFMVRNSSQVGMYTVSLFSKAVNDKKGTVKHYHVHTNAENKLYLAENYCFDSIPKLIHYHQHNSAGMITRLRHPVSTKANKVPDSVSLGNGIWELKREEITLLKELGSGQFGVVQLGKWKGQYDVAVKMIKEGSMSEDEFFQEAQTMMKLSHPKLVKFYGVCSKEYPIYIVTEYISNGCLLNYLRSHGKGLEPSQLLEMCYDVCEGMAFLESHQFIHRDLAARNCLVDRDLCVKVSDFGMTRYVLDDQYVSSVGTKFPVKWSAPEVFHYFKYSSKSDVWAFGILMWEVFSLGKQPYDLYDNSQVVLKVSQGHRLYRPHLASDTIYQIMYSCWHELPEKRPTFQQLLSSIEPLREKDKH

RAF1 (human) = RAF1 (human) (UniProt P04049)
Sequence of RAF1 (human) (P04049 whole entry, looked up): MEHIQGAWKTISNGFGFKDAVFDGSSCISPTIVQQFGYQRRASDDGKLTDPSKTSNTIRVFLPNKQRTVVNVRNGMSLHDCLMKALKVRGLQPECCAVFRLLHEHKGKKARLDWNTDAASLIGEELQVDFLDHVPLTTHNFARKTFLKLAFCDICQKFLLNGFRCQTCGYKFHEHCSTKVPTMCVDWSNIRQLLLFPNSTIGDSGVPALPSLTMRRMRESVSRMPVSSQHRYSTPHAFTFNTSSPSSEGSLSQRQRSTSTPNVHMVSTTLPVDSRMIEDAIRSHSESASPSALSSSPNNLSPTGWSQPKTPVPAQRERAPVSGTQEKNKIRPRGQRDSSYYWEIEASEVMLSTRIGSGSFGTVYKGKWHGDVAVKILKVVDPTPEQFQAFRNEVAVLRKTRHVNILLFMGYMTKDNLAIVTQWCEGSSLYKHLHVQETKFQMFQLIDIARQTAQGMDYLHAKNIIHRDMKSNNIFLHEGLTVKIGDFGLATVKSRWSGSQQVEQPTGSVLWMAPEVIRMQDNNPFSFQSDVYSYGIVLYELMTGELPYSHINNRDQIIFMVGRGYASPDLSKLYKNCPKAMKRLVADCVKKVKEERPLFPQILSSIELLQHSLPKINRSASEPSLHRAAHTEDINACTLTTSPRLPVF

Sequence of MAPKAPK5 (human) (Q8IW41 whole entry, looked up): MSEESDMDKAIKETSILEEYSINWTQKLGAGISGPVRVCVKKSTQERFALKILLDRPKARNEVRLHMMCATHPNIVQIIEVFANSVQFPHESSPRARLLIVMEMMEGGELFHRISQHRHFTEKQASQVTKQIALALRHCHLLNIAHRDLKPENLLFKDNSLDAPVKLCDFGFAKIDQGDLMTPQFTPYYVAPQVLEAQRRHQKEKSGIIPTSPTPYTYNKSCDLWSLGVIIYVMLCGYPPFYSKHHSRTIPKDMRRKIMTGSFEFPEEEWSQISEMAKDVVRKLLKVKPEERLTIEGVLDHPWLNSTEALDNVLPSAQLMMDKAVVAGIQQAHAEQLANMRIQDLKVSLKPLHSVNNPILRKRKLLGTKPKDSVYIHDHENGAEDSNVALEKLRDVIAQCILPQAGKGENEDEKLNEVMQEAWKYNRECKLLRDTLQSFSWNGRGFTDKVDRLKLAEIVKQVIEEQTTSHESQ

With `Cn1cc(-c2cnc3ccc4ccc(CS(=O)(=O)NCC5CCCCN5)cc4c(=O)c3c2)cn1` (configuration not stated) the inhibition [1] was -0.3%, the inhibition (MAPKAPK5 (human); compound 0.1 µM) was -4.3% and the inhibition (MAPKAPK5 (human); compound 1.0 µM) was -1.1%. For the same compound, the inhibition (EGFR (human)) was -4.8%, the inhibition (MARK2 (human); compound 0.1 µM) was -12.6% and the inhibition (MARK2 (human); compound 1.0 µM) was 2.4%. The inhibition (CSNK1A1 (human); compound 0.1 µM) was -5%, the inhibition (CSNK1A1 (human); compound 1.0 µM) was -11% and the inhibition (BRSK2 (human); compound 0.1 µM) was -1.3%. For the same compound, the inhibition (BRSK2 (human); compound 1.0 µM) was -9.5%, the inhibition (FGFR3 (human)) was -12.6% and the inhibition (MAPKAPK2 (human); compound 0.1 µM) was 7.6%. For the same compound, the inhibition (MAPKAPK2 (human); compound 1.0 µM) was 1.3%, the inhibition (AKT1 (human); compound 0.1 µM) was 12.6% and the inhibition (AKT1 (human); compound 1.0 µM) was 5.2%. The inhibition (IGF1R (human); compound 0.1 µM) was 4.9%, the inhibition (IGF1R (human); compound 1.0 µM) was -8.3% and the inhibition (PRKD3 (human); compound 0.1 µM) was -11.5%. It also gave an inhibition (PRKD3 (human); compound 1.0 µM) of -4.4%, an inhibition (CAMK2D (human); compound 0.1 µM) of 32% and an inhibition (CAMK2D (human); compound 1.0 µM) of 15.1%. It also gave an inhibition (PRKCE (human); compound 0.1 µM) of -9.1%, an inhibition (PRKCE (human); compound 1.0 µM) of -5.1% and an inhibition (MAPK3 (human); compound 0.1 µM) of 7.2%. It also gave an inhibition (MAPK3 (human); compound 1.0 µM) of 2.8%, an inhibition (MAPK14 (human); compound 0.1 µM) of 3.3% and an inhibition (MAPK14 (human); compound 1.0 µM) of -2.7%. It also gave an inhibition (LYN (human); compound 0.1 µM) of 17.3%, an inhibition (LYN (human); compound 1.0 µM) of 9.6% and an inhibition (IKBKB (human)) of 1.9%. The inhibition (MAPK11 (human)) was -1.4%, the inhibition (SYK (human); compound 0.1 µM) was 13.6% and the inhibition (SYK (human); compound 1.0 µM) was 0.3%. The inhibition (TSSK2 (human)) was 0.7%, the inhibition (DCLK2 (human); compound 0.1 µM) was -6% and the inhibition (DCLK2 (human); compound 1.0 µM) was -0.3%. It also gave an inhibition (PRKD2 (human); compound 0.1 µM) of -3.8%, an inhibition (PRKD2 (human); compound 1.0 µM) of 15% and an inhibition [2] of 14.9%. The inhibition (BRSK1 (human); compound 0.1 µM) was 2%, the inhibition (BRSK1 (human); compound 1.0 µM) was 5.2% and the inhibition (GSK3B (human)) was 2%. The inhibition (AKT3 (human)) was 2%, the inhibition (MARK3 (human); compound 0.1 µM) was 2% and the inhibition (MARK3 (human); compound 1.0 µM) was -4.3%. The inhibition (MAPKAPK3 (human)) was -2.7%, the inhibition (CAMK2G (human)) was -7.4% and the inhibition (CSNK1D (human); compound 0.1 µM) was 20.4%. For the same compound, the inhibition (CSNK1D (human); compound 1.0 µM) was 7.4%, the inhibition (PRKG1 (human); compound 0.1 µM) was -3.8% and -2.5% and the inhibition (PRKG1 (human); compound 1.0 µM) was -2.7%. The inhibition (FLT3 (human); compound 0.1 µM) was 11%, the inhibition (FLT3 (human); compound 1.0 µM) was 36.8% and the inhibition (BMX (human); compound 0.1 µM) was -17.3%. The inhibition (BMX (human); compound 1.0 µM) was -2.8%, the inhibition (RAF1 (human); compound 0.1 µM) was 5.4% and the inhibition (RAF1 (human); compound 1.0 µM) was -0.8%.
